# “And” between values parts separate entries of the source, which are not always exact repeats. Equal entries are not always repeated. Toxic doses and inconclusive results are not listed. Starred links: 1 amine or outer side, 2 acyl side, 3 side chain; linkers in the order of their positions; H or OH if unused. Positions of bridges follow the written chain, without caps; N, C: chain ends. Non-standard residues stand in square brackets, D forms with d. Residues, ends and D or L forms follow the SMILES beside them. Chains are numbered I, II in the order given. Actinocin(9to1) = Cc1c2oc3c(C)ccc(C(=O)[*:1])c3nc-2c(C(=O)[*:2])c(N)c1=O; NMeV = CN[CH](C(=O)O)C(C)C; Aze = O=C(O)[CH]1CCN1; Sar = CNCC(=O)O
# Test system: BDF1 mice, P815 leukemia ip, survival T/C
# Experiment: NCI In Vivo Anticancer Drug Screen. Data for tumor model P815 Mast Cell Leukemia (Ascitic) (intraperitoneal) in B6D2F1 (BDF1) mice
# Details: higher = longer survival
# Experimental: The antitumor activity of compounds was measured in mice bearing transplantable tumors. Survival or tumor size were measured and the results are expressed as the measurement made in the treated group (T) divided by the measurement made in the vehicle treated control group (C). The tumor model used in this assay is P815 Mast Cell Leukemia (Ascitic) (intraperitoneal) in B6D2F1 (BDF1) mice
# [1] = endpoint: survival time, mean or median, dose: 5.0 mg/kg/injection, schedule: Q01DX010 (ip), vehicle: saline
# [2] = endpoint: survival time, mean or median, dose: 10.0 mg/kg/injection, schedule: Q01DX010 (ip), vehicle: saline
# [3] = endpoint: survival time, mean or median, dose: 20.0 mg/kg/injection, schedule: Q01DX010 (ip), vehicle: saline
# [4] = endpoint: survival time, mean or median, dose: 40.0 mg/kg/injection, schedule: Q01DX010 (ip), vehicle: saline
smiles,measurement,setting,value
O=C(Nc1ccc(C2=NCCN2)cc1)c1ccc(C(=O)Nc2ccc(C3=NCCN3)cc2)c(Cl)c1,T/C,"endpoint: survival time, mean or median, dose: 1.5 mg/kg/injection, schedule: Q01DX015 (ip), vehicle: carboxymethylcellulose (CMC)",109 % of control
same,T/C,"endpoint: survival time, mean or median, dose: 6.0 mg/kg/injection, schedule: Q01DX015 (ip), vehicle: carboxymethylcellulose (CMC)",182 % of control
same,T/C,"endpoint: survival time, mean or median, dose: 9.0 mg/kg/injection, schedule: Q01DX015 (ip), vehicle: carboxymethylcellulose (CMC)",176 % of control
O=c1cnn(C2OC(CO)C(O)C2O)c(=O)[nH]1 (stereo unspecified),T/C,"endpoint: survival time, mean or median, dose: 800.0 mg/kg/injection, schedule: Q01DX010 (ip), vehicle: saline",111 % of control
same,T/C,"endpoint: survival time, mean or median, dose: 1600.0 mg/kg/injection, schedule: Q01DX010 (ip), vehicle: saline",100 % of control
Nc1cc(C(=O)Nc2ccc(C3=NCCN3)cc2)cc(C(=O)Nc2ccc(C3=NCCN3)cc2)c1,T/C,"endpoint: survival time, mean or median, dose: 16.0 mg/kg/injection, schedule: Q01DX010 (ip), vehicle: saline",116 % of control
same,T/C,"endpoint: survival time, mean or median, dose: 32.0 mg/kg/injection, schedule: Q01DX010 (ip), vehicle: saline",120 % of control
same,T/C,"endpoint: survival time, mean or median, dose: 64.0 mg/kg/injection, schedule: Q01DX010 (ip), vehicle: saline",150 % of control
CCOC(=O)c1c[nH]c2ccc(N(CCCl)CCCl)cc12,T/C,[1],100 % of control
same,T/C,[2],100 % of control
same,T/C,[3],100 % of control
same,T/C,[4],105 % of control
same,T/C,"endpoint: survival time, mean or median, dose: 80.0 mg/kg/injection, schedule: Q01DX010 (ip), vehicle: saline",112 % of control
Cc1nc(CON)cs1,T/C,"endpoint: median survival time, dose: 50.0 mg/kg/injection, schedule: Q01DX015 (ip), vehicle: saline",90 % of control
same,T/C,"endpoint: median survival time, dose: 100.0 mg/kg/injection, schedule: Q01DX015 (ip), vehicle: saline",94 % of control
CC(=O)OCC1OC(n2cnc3c(=S)nc[nH]c32)C(OC(C)=O)C1OC(C)=O (stereo unspecified),T/C,"endpoint: survival time, mean or median, dose: 50.0 mg/kg/injection, schedule: Q01DX015 (ip), vehicle: carboxymethylcellulose (CMC)",162 % of control
same,T/C,"endpoint: survival time, mean or median, dose: 100.0 mg/kg/injection, schedule: Q01DX015 (ip), vehicle: carboxymethylcellulose (CMC)",100 % of control
CS(=O)(=O)OCCC(=O)N1CCN(C(=O)CCOS(C)(=O)=O)CC1,T/C,"endpoint: survival time, mean or median, dose: 12.5 mg/kg/injection, schedule: Q01DX010 (ip), vehicle: saline",105 % of control
same,T/C,"endpoint: survival time, mean or median, dose: 25.0 mg/kg/injection, schedule: Q01DX010 (ip), vehicle: saline",222 % of control
same,T/C,"endpoint: survival time, mean or median, dose: 50.0 mg/kg/injection, schedule: Q01DX010 (ip), vehicle: saline",211 % of control and 285 % of control
same,T/C,"endpoint: survival time, mean or median, dose: 100.0 mg/kg/injection, schedule: Q01DX010 (ip), vehicle: saline",183 % of control and 160 % of control
CC(=O)OCC1OC(n2cnc3c(=S)nc(N)[nH]c32)C(OC(C)=O)C1OC(C)=O (stereo unspecified),T/C,"endpoint: survival time, mean or median, dose: 1.5 mg/kg/injection, schedule: Q01DX015 (ip), vehicle: other",113 % of control
same,T/C,"endpoint: survival time, mean or median, dose: 3.1 mg/kg/injection, schedule: Q01DX015 (ip), vehicle: other",110 % of control
same,T/C,"endpoint: survival time, mean or median, dose: 6.2 mg/kg/injection, schedule: Q01DX015 (ip), vehicle: other",108 % of control
same,T/C,"endpoint: survival time, mean or median, dose: 12.5 mg/kg/injection, schedule: Q01DX015 (ip), vehicle: other",88 % of control
CN(C)c1ccc(/C=C/c2ccnc3ccccc23)cc1,T/C,[1],100 % of control
same,T/C,[2],88 % of control and 94 % of control
same,T/C,[3],88 % of control and 100 % of control
same,T/C,[4],100 % of control
"Cc1c2oc3c(C)ccc(C(=O)NC4C(=O)NC(C(C)C)C(=O)N5CCC5C(=O)N(C)CC(=O)N(C)C(C(C)C)C(=O)OC4C)c3nc-2c(C(=O)NC2C(=O)NC(C(C)C)C(=O)N3CCC3C(=O)N(C)CC(=O)N(C)C(C(C)C)C(=O)OC2C)c(N)c1=O (stereo unspecified) (I: TV[Aze][Sar][NMeV] / II: TV[Aze][Sar][NMeV]; ester I:1-I:C, II:1-II:C; linker I:N-II:N via Actinocin(9to1); configuration not given here)",T/C,"endpoint: median survival time, dose: 270.0 micrograms/kg/injection, schedule: Q04DX003 (ip), vehicle: saline + alcohol",118 % of control
same,T/C,"endpoint: median survival time, dose: 450.0 micrograms/kg/injection, schedule: Q01DX001 (ip), vehicle: saline + alcohol",118 % of control
same,T/C,"endpoint: median survival time, dose: 450.0 micrograms/kg/injection, schedule: Q04DX003 (ip), vehicle: saline + alcohol",113 % of control
same,T/C,"endpoint: median survival time, dose: 750.0 micrograms/kg/injection, schedule: Q01DX001 (ip), vehicle: saline + alcohol",121 % of control
same,T/C,"endpoint: median survival time, dose: 750.0 micrograms/kg/injection, schedule: Q04DX003 (ip), vehicle: saline + alcohol",97 % of control
same,T/C,"endpoint: median survival time, dose: 1250.0 micrograms/kg/injection, schedule: Q01DX001 (ip), vehicle: saline + alcohol",105 % of control
same,T/C,"endpoint: median survival time, dose: 1250.0 micrograms/kg/injection, schedule: Q04DX003 (ip), vehicle: saline + alcohol",92 % of control
